Test results published in PMC6039436, “Radiobrominated benzimidazole-quinoline derivatives as Platelet-derived growth factor receptor beta (PDGFRβ) imaging probes” (Scientific Reports, 2018).
“And” between values parts separate entries of the source, which are not always exact repeats. Equal entries are not always repeated. “Also recorded” adds a separate entry of the source.

Legend:
[1] = system: BxPC3-luc cells (PDGFRβ-positive); experiment: Cellular uptake study (double tracer method); assay type: cell-based; details: BxPC3-luc (PDGFRβ-positive) vs MCF7 (PDGFRβ-negative), 0.5–4 h
Protocol: Figure 5 Cellular uptake study. Time-dependent accumulation of (a) [^77Br]2 and [^125I]4 (b) [^77Br]3 and [^125I]5 in BxPC3-luc and MCF7 cells. Data were presented as mean ± SD for three samples.
Radiotracer uptake experiments in tumor cells were performed using BxPC3-luc and MCF7 cell lines. To compare the uptake between radiobrominated compounds, [^77Br]2 and [^77Br]3, and the corresponding radioiodinated compounds, [^125I]4 and [^125I]5, the cellular uptake experiments were performed by a double tracer method as described previously with a slight modification[30],[31],[35]. Briefly, the cells were seeded in RPMI 1640 medium containing 10% FBS and antibiotics on six-well plates (2 × 10^5 cells/well) for 24 h in a 5% CO2 incubator at 37 °C. After removal of medium, cells were incubated in medium without FBS containing [^77Br]2 (3.7 kBq/well) and [^125I]4 (3.7 kBq/well) or [^77Br]3 (3.7 kBq/well) and [^125I]5 (3.7 kBq/well) and tween-80 (0.1%) for 0.5, 1, 2 and 4 h. Radioiodinated compounds were prepared as described previously][24]. Cells were washed with ice-cold 1 mL of PBS and dissolved using 0.5 mL of 1 M NaOH and wells were washed with 1 M NaOH aqueous solution (0.5 mL). The radioactivity of pooled basic fractions was counted by a gamma counter. A range between 16 and 71 keV was used for measuring ^125I and between 95 and 700 for ^77Br. When radioactivity of ^77Br was counted, the crossover of ^125I activity into the ^77Br channel was negligible. More than one month after the experiment, the radioactivity of ^125I was determined because at that time ^77Br has been decayed and its radioactivity was negligible. The protein in the cell was quantified by a BCA Protein Assay Kit. All data were expressed as %dose/µg protein.

[2] = In vitro stability in 0.1 M PBS (pH 7.4); assay type: physicochemical; details: 24 h incubation at 37 °C, purity by TLC
Protocol: The stability of [^77Br]2 and [^77Br]3 in 0.1 M phosphate-buffered saline (PBS) (pH 7.4) was high (93.6 ± 0.9% and 93.0 ± 0.6%, respectively). There was no significant decomposition after 24 h incubation at 37 °C for either radiotracer.
The stability of radiolabeled compounds, [^77Br]2 and [^77Br]3, were analyzed as described previously. The purities radiolabeled compounds were determined by TLC using chloroform/methanol = 5/1 and 20/1 as a developing solvent for [^77Br]2 and [^77Br]3, respectively. The results were confirmed by RP-HPLC.

[3] = Biodistribution in ddY mice; assay type: in vivo; details: i.v. co-injection
Protocol: In this study, to minimize both the number of mice consumed in the experiment and the potential for experimental errors, we co-injected radiobrominated and radioiodinated compounds into mice[30],[31]. High radioactivity in the liver, small intestine, and large intestine was observed.
(§1) Mice were intravenously injected via the tail with 100 µL of saline solution of [^77Br]2 and [^125I]4 or [^77Br]3 and [^125I]5 (74 kBq, respectively), containing 10% ethanol and 1% tween-80. The ddY mice were sacrificed at 10 min, 1, 4, and 24 h postinjection. Meanwhile, tumor-bearing mice were sacrificed at 1 h postinjection.
(§2) Tissues in mice were resected and weighed. The radioactivity of the tissues was counted by a gamma counter and counts were corrected for background radiation. The data were expressed as percent injection dose per gram tissue (%ID/g).

BxPC3-luc tumor = experiment: Biodistribution in BxPC3-luc tumor-bearing mice; assay type: in vivo, BALB/c nu/nu mice
Protocol: We investigated the biodistribution of the radiotracers in BxPC3-luc tumor-bearing mice by co-injecting [^77Br]2 with [^125I]4 (Table 3), and [^77Br]3 with [^125I]5 (Table 4).
Animal experiments were conducted in strict accordance with the Guidelines for the Care and Use of Laboratory Animals of Kanazawa University. The animal experimental protocols used were approved by the Committee on Animal Experimentation of Kanazawa University (Permit Number: AP-163766). The animals were housed with free access to food and water at approximately 23 °C with a 12 h light/dark schedule. ddY mice (six-week-old, male, 27–30 g) and BALB/c nu/nu mice (four-week-old, female, 12–17 g) were purchased from Japan SLC Inc. (Hamamatsu, Japan). For preparing the tumor-bearing mice, BxPC3-luc cells (5 × 10^6 cells) were subcutaneously injected into the left shoulder of BALB/c nu/nu mice. The tumor reached palpable size after two weeks of the inoculation.
as §1, §2

COCCOc1ccc2c(c1)ncn2-c1ccc2c([77Br])ccc(N3CCC(N)CC3)c2n1 [[^77Br]2, [^77Br]1-{5-Bromo-2-[5-(2-methoxyethoxy)-1H-benzo[d]imidazol-1-yl]quinoline-8-yl}piperidin-4-amine]
Cellular uptake in BxPC3-luc cells [1]: higher than that in MCF7 cells; also recorded: higher uptake of [^77Br]2 than that of [^77Br]3
Stability in 0.1 M PBS (pH 7.4) [2]: 93.6 ± 0.9%
Radioactivity in Blood ([3]; 10 min): 0.99 (0.03) %injected dose/gram tissue
Radioactivity in Bone ([3]; 10 min): 2.81 (1.06) %injected dose/gram tissue
Radioactivity in Brain ([3]; 10 min): 0.12 (0.01) %injected dose/gram tissue
Radioactivity in Heart ([3]; 10 min): 4.41 (0.27) %injected dose/gram tissue
Radioactivity in Kidney ([3]; 10 min): 15.61 (1.32) %injected dose/gram tissue
Radioactivity in Large intestine ([3]; 10 min): 0.99 (0.10) %injected dose/gram tissue
Radioactivity in Liver ([3]; 10 min): 12.49 (0.64) %injected dose/gram tissue
Radioactivity in Lung ([3]; 10 min): 10.92 (0.55) %injected dose/gram tissue
Radioactivity in Muscle ([3]; 10 min): 2.24 (0.18) %injected dose/gram tissue
Radioactivity in Pancreas ([3]; 10 min): 4.18 (0.38) %injected dose/gram tissue
Radioactivity in Small intestine ([3]; 10 min): 8.58 (2.18) %injected dose/gram tissue
Radioactivity in Spleen ([3]; 10 min): 5.39 (0.40) %injected dose/gram tissue
Radioactivity in Stomach ([3]; 10 min): 1.74 (0.15) %injected dose /organ
Radioactivity in Blood ([3]; 1 h): 0.28 (0.06) %injected dose/gram tissue
Radioactivity in Bone ([3]; 1 h): 1.15 (0.15) %injected dose/gram tissue
Radioactivity in Brain ([3]; 1 h): 0.10 (0.01) %injected dose/gram tissue
Radioactivity in Heart ([3]; 1 h): 1.15 (0.17) %injected dose/gram tissue
Radioactivity in Kidney ([3]; 1 h): 10.12 (3.49) %injected dose/gram tissue
Radioactivity in Large intestine ([3]; 1 h): 2.69 (0.65) %injected dose/gram tissue
Radioactivity in Liver ([3]; 1 h): 4.26 (1.37) %injected dose/gram tissue
Radioactivity in Lung ([3]; 1 h): 4.32 (0.84) %injected dose/gram tissue
Radioactivity in Muscle ([3]; 1 h): 0.92 (0.04) %injected dose/gram tissue
Radioactivity in Pancreas ([3]; 1 h): 2.98 (0.75) %injected dose/gram tissue
Radioactivity in Small intestine ([3]; 1 h): 29.51 (7.92) %injected dose/gram tissue
Radioactivity in Spleen ([3]; 1 h): 1.59 (0.28) %injected dose/gram tissue
Radioactivity in Stomach ([3]; 1 h): 1.62 (0.55) %injected dose /organ
Radioactivity in Blood ([3]; 4 h): 0.20 (0.03) %injected dose/gram tissue
Radioactivity in Bone ([3]; 4 h): 1.50 (1.27) %injected dose/gram tissue
Radioactivity in Brain ([3]; 4 h): 0.09 (0.00) %injected dose/gram tissue
Radioactivity in Heart ([3]; 4 h): 0.58 (0.13) %injected dose/gram tissue
Radioactivity in Kidney ([3]; 4 h): 4.33 (0.75) %injected dose/gram tissue
Radioactivity in Large intestine ([3]; 4 h): 53.70 (8.89) %injected dose/gram tissue
Radioactivity in Liver ([3]; 4 h): 3.44 (0.98) %injected dose/gram tissue
Radioactivity in Lung ([3]; 4 h): 2.71 (1.06) %injected dose/gram tissue
Radioactivity in Muscle ([3]; 4 h): 0.44 (0.07) %injected dose/gram tissue
Radioactivity in Pancreas ([3]; 4 h): 1.63 (0.19) %injected dose/gram tissue
Radioactivity in Small intestine ([3]; 4 h): 4.76 (0.89) %injected dose/gram tissue
Radioactivity in Spleen ([3]; 4 h): 0.69 (0.24) %injected dose/gram tissue
Radioactivity in Stomach ([3]; 4 h): 0.81 (0.21) %injected dose /organ
Radioactivity in Blood ([3]; 24 h): 0.12 (0.02) %injected dose/gram tissue
Radioactivity in Bone ([3]; 24 h): 0.55 (0.10) %injected dose/gram tissue
Radioactivity in Brain ([3]; 24 h): 0.07 (0.00) %injected dose/gram tissue
Radioactivity in Heart ([3]; 24 h): 0.29 (0.03) %injected dose/gram tissue
Radioactivity in Kidney ([3]; 24 h): 0.21 (0.05) %injected dose/gram tissue
Radioactivity in Large intestine ([3]; 24 h): 0.18 (0.03) %injected dose/gram tissue
Radioactivity in Liver ([3]; 24 h): 0.29 (0.08) %injected dose/gram tissue
Radioactivity in Lung ([3]; 24 h): 0.29 (0.05) %injected dose/gram tissue
Radioactivity in Muscle ([3]; 24 h): 0.22 (0.02) %injected dose/gram tissue
Radioactivity in Pancreas ([3]; 24 h): 0.41 (0.34) %injected dose/gram tissue
Radioactivity in Small intestine ([3]; 24 h): 0.07 (0.01) %injected dose/gram tissue
Radioactivity in Spleen ([3]; 24 h): 0.66 (0.77) %injected dose/gram tissue
Radioactivity in Stomach ([3]; 24 h): 0.11 (0.01) %injected dose /organ
Tumor-to-blood ratio of radioactivity (BxPC3-luc tumor; 1 h postinjection): 2.8
Radioactivity in Blood (BxPC3-luc tumor; i.v. co-injection, 1 h): 0.58 (0.10) %injected dose/gram of tissue
Radioactivity in Bone (BxPC3-luc tumor; i.v. co-injection, 1 h): 1.15 (0.09) %injected dose/gram of tissue
Radioactivity in Brain (BxPC3-luc tumor; i.v. co-injection, 1 h): 0.14 (0.03) %injected dose/gram of tissue
Radioactivity in BxPC3-luc tumor (BxPC3-luc tumor; i.v. co-injection, 1 h): 1.61 %injected dose/gram of tissue and 1.61 ± 0.24 %injected dose/gram of tissue and 1.61 (0.24) %injected dose/gram of tissue
Radioactivity in Heart (BxPC3-luc tumor; i.v. co-injection, 1 h): 1.88 (0.33) %injected dose/gram of tissue
Radioactivity in Kidney (BxPC3-luc tumor; i.v. co-injection, 1 h): 17.39 (4.03) %injected dose/gram of tissue
Radioactivity in Large intestine (BxPC3-luc tumor; i.v. co-injection, 1 h): 3.22 (0.40) %injected dose/gram of tissue
Radioactivity in Liver (BxPC3-luc tumor; i.v. co-injection, 1 h): 11.07 (1.04) %injected dose/gram of tissue
Radioactivity in Lung (BxPC3-luc tumor; i.v. co-injection, 1 h): 10.31 (1.91) %injected dose/gram of tissue
Radioactivity in Muscle (BxPC3-luc tumor; i.v. co-injection, 1 h): 0.94 (0.08) %injected dose/gram of tissue
Radioactivity in Pancreas (BxPC3-luc tumor; i.v. co-injection, 1 h): 6.61 (1.00) %injected dose/gram of tissue
Radioactivity in Small intestine (BxPC3-luc tumor; i.v. co-injection, 1 h): 51.52 (9.93) %injected dose/gram of tissue
Radioactivity in Spleen (BxPC3-luc tumor; i.v. co-injection, 1 h): 2.94 (0.54) %injected dose/gram of tissue
Radioactivity in Stomach (BxPC3-luc tumor; i.v. co-injection, 1 h): 0.96 (0.20) %injected dose /organ
